From ChEMBL document CHEMBL3120147, “Synthesis and in vitro urease inhibitory activity of N,N'-disubstituted thioureas” (Eur J Med Chem, 2014)

How the values were obtained:
Urease [1] = biological target: T1, Urease (Canavalia ensiformis, UniProt P07374); assay: Inhibition of jack bean urease using urea as substrate assessed as ammonia production after 15 mins by indophenol method
[2] = biological target: Urease (Canavalia ensiformis) (UniProt P07374); assay: (§1) Non-competitive inhibition of jack bean urease using urea as substrate assessed as ammonia production after 15 mins by Lineweaver-Burk/Dixon plot analysis
Urease (Canavalia ensiformis), sequence (P07374 whole entry, looked up): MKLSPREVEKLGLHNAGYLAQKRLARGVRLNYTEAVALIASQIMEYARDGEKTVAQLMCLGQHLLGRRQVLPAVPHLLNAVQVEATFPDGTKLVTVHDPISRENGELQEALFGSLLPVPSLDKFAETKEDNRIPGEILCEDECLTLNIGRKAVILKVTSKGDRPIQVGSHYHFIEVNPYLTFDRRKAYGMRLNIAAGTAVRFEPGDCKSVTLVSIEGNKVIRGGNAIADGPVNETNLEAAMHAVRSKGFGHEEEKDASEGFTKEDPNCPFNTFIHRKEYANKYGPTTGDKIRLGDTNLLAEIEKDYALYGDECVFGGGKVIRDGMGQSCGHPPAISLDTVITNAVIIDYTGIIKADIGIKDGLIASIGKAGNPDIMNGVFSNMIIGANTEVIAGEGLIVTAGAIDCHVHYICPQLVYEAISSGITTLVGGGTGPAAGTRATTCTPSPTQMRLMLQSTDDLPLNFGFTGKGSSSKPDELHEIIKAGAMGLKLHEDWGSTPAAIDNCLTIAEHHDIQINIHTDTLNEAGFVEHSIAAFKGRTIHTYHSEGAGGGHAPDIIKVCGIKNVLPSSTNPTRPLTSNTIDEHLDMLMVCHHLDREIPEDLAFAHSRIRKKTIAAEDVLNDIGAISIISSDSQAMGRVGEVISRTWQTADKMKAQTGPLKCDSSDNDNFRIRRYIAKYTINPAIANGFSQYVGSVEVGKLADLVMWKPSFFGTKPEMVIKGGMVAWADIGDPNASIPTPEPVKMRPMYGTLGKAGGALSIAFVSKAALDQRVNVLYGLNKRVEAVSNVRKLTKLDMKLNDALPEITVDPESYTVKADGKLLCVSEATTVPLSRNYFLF

Urease [3] = biological target: T1, Urease; assay: as §1
[4] = biological target: Urease (Canavalia ensiformis) (UniProt P07374); assay: (§2) Mixed-type inhibition of jack bean urease using urea as substrate assessed as ammonia production after 15 mins by Lineweaver-Burk/Dixon plot analysis
Urease [5] = biological target: T1, Urease; assay: as §2
Urease [6] = biological target: T1, Urease; assay: (§3) Competitive inhibition of jack bean urease using urea as substrate assessed as ammonia production after 15 mins by Lineweaver-Burk/Dixon plot analysis
[7] = biological target: Urease (Canavalia ensiformis) (UniProt P07374); assay: as §3

T1 sequence (P07374 whole entry): as the sequence (P07374 whole entry, looked up) above

Structure (SMILES)	IC50 (Urease [1]; read-out: IC50)	also measured
Cc1ccccc1NC(=S)Nc1cccc(Cl)c1	34.4 µM	–
Cc1ccc(NC(=S)Nc2cccc(Cl)c2)cc1	18.6 µM	inhibition [2]: Dose-dependent effect; Ki (Urease [3]): 12.1 µM
COc1ccccc1NC(=S)Nc1cccc(Cl)c1	20.1 µM	–
COc1ccc(OC)c(NC(=S)Nc2ccccc2)c1	29.9 µM	–
Cc1cccc(C)c1NC(=S)Nc1cccc(Cl)c1	27.4 µM	–
S=C(Nc1cccc(Cl)c1)Nc1ccc(Cl)cc1Cl	42.2 µM	–
Cc1nc(NC(=S)Nc2ccccc2)ccc1Br	82.7 µM	–
S=C(NCc1ccncc1)Nc1cccc(Cl)c1	22.7 µM	–
Cc1ccc(Cl)cc1NC(=S)Nc1cccc(Cl)c1	20.1 µM	inhibition [4]: Dose-dependent effect; Ki (Urease [5]): 18.5 µM
S=C(Nc1ccccc1)Nc1ccc(Br)cc1	34.3 µM	–
S=C(Nc1ccccc1)Nc1cccc(Br)c1	18.3 µM	inhibition [4]: Dose-dependent effect; Ki (Urease [5]): 15.6 µM
S=C(NCc1cccnc1)Nc1cccc(Cl)c1	23 µM	–
S=C(NCc1cccnc1)Nc1ccccc1	33.5 µM	–
S=C(Nc1cccc(Cl)c1)Nc1c(Cl)cccc1Cl	41 µM	–
S=C(Nc1cccc(Cl)c1)Nc1cccc(Cl)c1	20 µM	inhibition [4]: Dose-dependent effect; Ki (Urease [5]): 18.1 µM
Fc1ccc(NC(=S)Nc2cccc(Cl)c2)cc1	19.1 µM	Ki (Urease [5]): 16.8 µM
S=C(Nc1cccc(Cl)c1)Nc1ccccc1Cl	22.2 µM	–
NC(N)=S [THIOUREA]	–	Ki (Urease [6]): 20 µM
S=C(Nc1cccc(Cl)c1)Nc1cccc(Cl)c1Cl	27.1 µM	–
Fc1ccc(NC(=S)Nc2ccccc2)c(F)c1	24.3 µM	–

Structure (SMILES)	IC50 (Urease [1]; read-out: IC50)	also measured
S=C(Nc1cccc(Cl)c1)Nc1ccc(Cl)c(Cl)c1	11 µM	inhibition [7]: Dose-dependent effect; Ki (Urease [6]): 11.7 µM
Cc1cccnc1NC(=S)Nc1ccccc1	25.3 µM	–
S=C(Nc1ccccc1)Nc1cccnc1	8.43 µM	inhibition [7]: Dose-dependent effect; Ki (Urease [6]): 8.6 µM
S=C(Nc1ccccc1)Nc1ncc(Cl)cc1Cl	37 µM	–
Cc1ccc(C)c(NC(=S)Nc2cccc(Cl)c2)c1	20.9 µM	inhibition [4]: Dose-dependent effect; Ki (Urease [5]): 19.3 µM
Cc1cccc(NC(=S)Nc2cccc(Cl)c2)c1	15 µM	inhibition [4]: Dose-dependent effect; Ki (Urease [5]): 15.7 µM
Cc1cccnc1NC(=S)Nc1cccc(Cl)c1	15.9 µM	–
S=C(Nc1ccccc1)Nc1cccnc1Cl	–	IC50 (Urease [1]): Not Active
S=C(Nc1ccccc1)Nc1ccccn1	23.4 µM	–
S=C(Nc1ccc(Cl)cc1)Nc1cccc(Cl)c1	20.3 µM	inhibition [4]: Dose-dependent effect; Ki (Urease [5]): 18.1 µM
COc1ccc(NC(=S)Nc2cccc(Cl)c2)cc1	29.6 µM	–
S=C(Nc1ccccc1)Nc1ccncc1	43.9 µM	–
Cc1ccc(NC(=S)Nc2cccc(Cl)c2)c(C)c1	24.1 µM	–
S=C(NCc1ccncc1)Nc1ccccc1	32.6 µM	–
S=C(Nc1cccnc1)Nc1cccc(Cl)c1	24.5 µM	–
S=C(Nc1cccc(Cl)c1)Nc1cccnc1Cl	–	IC50 (Urease [1]): Not Active
S=C(NCc1ccco1)Nc1ccccc1	32.4 µM	–
Fc1ccc(NC(S)=Nc2cccc(Cl)c2)cc1	–	inhibition [4]: Dose-dependent effect
COc1cccc(NC(=S)Nc2cccc(Cl)c2)c1	24.5 µM	–
Fc1ccc(NC(=S)Nc2cccc(Cl)c2)cc1F	16.3 µM	–
